Literature values, collected in article PMC4642890 (Bioorganic & medicinal chemistry letters, 2015).

Test system: neuropathic pain
Conditions: rodent model

Substance | effect on neuropathic pain | opioid-induced tolerance | reward liability
Tyr^1-DAla^2-Gly^3-Phe^4-Met^5-Pro^6-Leu^7-Trp^8-O-[3’,5’-Bzl(CF3)2] [TY005] | reverse neuropathic pain | no sign of opioid-induce tolerance | no development of reward liability
Tyr^1-DAla^2-Gly^3-Phe^4-Met^5-Pro^6-Leu^7-Trp^8-NH-[3’,5’-Bzl(CF3)2] [TY027] | reverse neuropathic pain | no sign of opioid-induce tolerance | no development of reward liability
